Molecules are shown by their SMILES.

The target in assay [1] is Proto-oncogene tyrosine-protein kinase Src (Homo sapiens, UniProt P12931). The assay can be described thus: Inhibition of SRC ACT labeling site in human A-375 cells at 0.5 uM by KiNativ Profiling analysis relative to control. The format is cell-based.
Assay [2] deals with T1, Mitogen-activated protein kinase 10 (Homo sapiens, UniProt P53779). The assay can be described thus: Inhibition of JNK3 (unknown origin) Lys2 labeling site by KiNativ Profiling analysis.
Assay [3] concerns the target Tyrosine-protein kinase ABL1 (Homo sapiens, UniProt P00519). The assay is described as follows: Inhibition of ABL (unknown origin) ACT labeling site by KiNativ Profiling analysis.
Assay [4] addresses T2, Kinase suppressor of Ras 1 (Homo sapiens) (UniProt Q8IVT5).
T2 sequence (whole entry): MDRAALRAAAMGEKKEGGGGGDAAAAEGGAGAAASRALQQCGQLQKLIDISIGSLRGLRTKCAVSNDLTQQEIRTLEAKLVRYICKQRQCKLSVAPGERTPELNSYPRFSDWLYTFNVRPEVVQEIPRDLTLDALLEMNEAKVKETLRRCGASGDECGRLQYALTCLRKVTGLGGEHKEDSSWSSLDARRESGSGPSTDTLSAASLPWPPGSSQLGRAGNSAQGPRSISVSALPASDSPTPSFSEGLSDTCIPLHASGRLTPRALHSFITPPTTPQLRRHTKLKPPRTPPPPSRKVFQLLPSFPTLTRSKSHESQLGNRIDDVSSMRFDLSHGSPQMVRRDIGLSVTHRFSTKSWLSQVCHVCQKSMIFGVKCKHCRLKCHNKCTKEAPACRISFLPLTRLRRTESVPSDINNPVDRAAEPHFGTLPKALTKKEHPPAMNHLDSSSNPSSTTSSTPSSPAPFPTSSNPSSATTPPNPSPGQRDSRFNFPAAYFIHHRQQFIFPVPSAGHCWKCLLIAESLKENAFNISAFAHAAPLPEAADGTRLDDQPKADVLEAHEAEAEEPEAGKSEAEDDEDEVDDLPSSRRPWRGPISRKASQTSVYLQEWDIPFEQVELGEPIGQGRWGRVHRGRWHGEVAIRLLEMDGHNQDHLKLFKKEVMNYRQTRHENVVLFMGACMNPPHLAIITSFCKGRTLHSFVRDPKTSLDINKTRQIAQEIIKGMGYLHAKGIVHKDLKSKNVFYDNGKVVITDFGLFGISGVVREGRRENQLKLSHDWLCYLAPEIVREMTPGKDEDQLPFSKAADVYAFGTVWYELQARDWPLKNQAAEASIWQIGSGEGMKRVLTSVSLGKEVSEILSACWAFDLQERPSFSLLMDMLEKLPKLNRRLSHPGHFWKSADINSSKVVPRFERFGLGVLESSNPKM
The assay can be described thus: Inhibition of KSR1 ACT labeling site harbouring SKNVFYDNGK in human A-375 cells at 5 uM by KiNativ Profiling analysis relative to control. The format is cell-based.

In assay [5] the target is Serine/threonine-protein kinase 25 (Homo sapiens) (UniProt O00506). The assay can be described thus: Inhibition of YSK1 Lys2 labeling site in human A-375 cells at 0.5 uM by KiNativ Profiling analysis relative to control. The format is cell-based.
For assay [6], the target named is T3, Serine/threonine-protein kinase Nek9 (Homo sapiens) (UniProt Q8TD19).
T3 sequence (whole entry): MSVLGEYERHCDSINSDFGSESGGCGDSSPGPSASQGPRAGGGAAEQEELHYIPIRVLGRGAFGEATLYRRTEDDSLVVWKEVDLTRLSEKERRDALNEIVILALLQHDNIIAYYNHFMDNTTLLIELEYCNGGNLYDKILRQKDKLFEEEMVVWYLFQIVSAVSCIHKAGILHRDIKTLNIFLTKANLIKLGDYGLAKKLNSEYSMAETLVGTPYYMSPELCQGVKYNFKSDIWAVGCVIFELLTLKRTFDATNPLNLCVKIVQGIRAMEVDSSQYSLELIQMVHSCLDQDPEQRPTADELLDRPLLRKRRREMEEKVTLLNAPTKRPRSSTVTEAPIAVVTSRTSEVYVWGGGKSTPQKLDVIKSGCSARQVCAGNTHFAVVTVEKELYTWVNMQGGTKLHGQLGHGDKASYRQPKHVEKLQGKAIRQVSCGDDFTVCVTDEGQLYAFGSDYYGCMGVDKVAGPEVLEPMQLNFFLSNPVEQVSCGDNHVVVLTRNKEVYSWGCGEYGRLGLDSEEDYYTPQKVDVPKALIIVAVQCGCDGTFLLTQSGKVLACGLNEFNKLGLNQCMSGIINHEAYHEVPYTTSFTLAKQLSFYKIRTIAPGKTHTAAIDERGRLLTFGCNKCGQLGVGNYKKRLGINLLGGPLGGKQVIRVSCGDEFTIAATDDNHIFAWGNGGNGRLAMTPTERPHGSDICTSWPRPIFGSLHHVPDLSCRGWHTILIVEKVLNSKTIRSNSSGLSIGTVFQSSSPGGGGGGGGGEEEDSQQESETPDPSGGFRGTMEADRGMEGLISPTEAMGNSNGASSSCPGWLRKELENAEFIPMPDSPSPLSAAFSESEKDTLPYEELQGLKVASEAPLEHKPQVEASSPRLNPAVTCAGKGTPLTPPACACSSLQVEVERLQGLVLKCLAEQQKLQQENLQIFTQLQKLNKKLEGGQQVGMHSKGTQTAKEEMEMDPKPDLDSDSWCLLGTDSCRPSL
The assay is described as follows: Inhibition of NEK9 Lys1 labeling site harbouring RTEDDSLVVWKEVDLTR in human A-375 cells at 0.5 uM by KiNativ Profiling analysis relative to control. The class given is cell-based.

Assay [7] concerns the target Protein kinase C alpha type (Homo sapiens) (UniProt P17252). The assay can be described thus: Inhibition of PKCa Lys2 labeling site in human A-375 cells at 0.5 uM by KiNativ Profiling analysis relative to control. The format is cell-based.
Assay [8] addresses Interferon-induced, double-stranded RNA-activated protein kinase (Homo sapiens) (UniProt P19525). The assay can be described thus: Inhibition of PKR Lys2 labeling site in human A-375 cells at 0.5 uM by KiNativ Profiling analysis relative to control. The class given is cell-based.
The target in assay [9] is Calcium/calmodulin-dependent protein kinase type II subunit gamma (Homo sapiens) (UniProt Q13555). The assay is described as follows: Inhibition of CaMK2g Lys1 labeling site harbouring KTSTQEYAAKIINTKK in human A-375 cells at 0.05 uM by KiNativ Profiling analysis relative to control. The class given is cell-based.
Assay [10] addresses T1, Mitogen-activated protein kinase 10. The assay can be described thus: Inhibition of JNK3 Lys2 labeling site in human A-375 cells at 0.05 uM by KiNativ Profiling analysis relative to control. The format is cell-based.
Assay [11] concerns the target Serine/threonine-protein kinase Nek7 (Homo sapiens) (UniProt Q8TDX7). The assay is described as follows: Inhibition of NEK7 ACT labeling site in human A-375 cells at 0.05 uM by KiNativ Profiling analysis relative to control. The class given is cell-based.
Assay [12] concerns the target T3, Serine/threonine-protein kinase Nek9 (Homo sapiens). The assay can be described thus: Inhibition of NEK9 Lys2 labeling site in human A-375 cells at 0.05 uM by KiNativ Profiling analysis relative to control. The format is cell-based.
For assay [13], the target named is Serine/threonine-protein kinase tousled-like 2 (Homo sapiens) (UniProt Q86UE8). The assay can be described thus: Inhibition of TLK2 Lys1 labeling site in human A-375 cells at 0.05 uM by KiNativ Profiling analysis relative to control. The class given is cell-based.
Serine/threonine-protein kinase tousled-like 2 (Homo sapiens), sequence (Q86UE8 whole entry, looked up): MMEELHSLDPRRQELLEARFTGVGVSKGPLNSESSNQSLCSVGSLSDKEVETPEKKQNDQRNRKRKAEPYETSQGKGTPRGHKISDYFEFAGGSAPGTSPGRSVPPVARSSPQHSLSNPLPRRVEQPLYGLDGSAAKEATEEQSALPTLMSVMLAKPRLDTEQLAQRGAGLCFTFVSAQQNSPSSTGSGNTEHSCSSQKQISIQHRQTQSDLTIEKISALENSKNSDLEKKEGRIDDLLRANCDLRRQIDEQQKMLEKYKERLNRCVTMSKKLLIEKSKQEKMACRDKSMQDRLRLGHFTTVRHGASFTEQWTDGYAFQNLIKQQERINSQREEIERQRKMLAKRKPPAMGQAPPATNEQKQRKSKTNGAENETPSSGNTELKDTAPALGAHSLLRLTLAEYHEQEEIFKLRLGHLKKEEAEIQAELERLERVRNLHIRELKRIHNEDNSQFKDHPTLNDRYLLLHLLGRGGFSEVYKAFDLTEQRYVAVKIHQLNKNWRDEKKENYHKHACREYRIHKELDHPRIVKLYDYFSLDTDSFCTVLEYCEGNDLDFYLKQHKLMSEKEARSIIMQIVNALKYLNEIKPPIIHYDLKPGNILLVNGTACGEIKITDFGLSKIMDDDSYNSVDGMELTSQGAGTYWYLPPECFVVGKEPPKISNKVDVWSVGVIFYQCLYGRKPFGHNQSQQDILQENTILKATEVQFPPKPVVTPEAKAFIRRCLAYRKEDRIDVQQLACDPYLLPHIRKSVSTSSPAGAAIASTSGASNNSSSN

T1 sequence (P53779 whole entry): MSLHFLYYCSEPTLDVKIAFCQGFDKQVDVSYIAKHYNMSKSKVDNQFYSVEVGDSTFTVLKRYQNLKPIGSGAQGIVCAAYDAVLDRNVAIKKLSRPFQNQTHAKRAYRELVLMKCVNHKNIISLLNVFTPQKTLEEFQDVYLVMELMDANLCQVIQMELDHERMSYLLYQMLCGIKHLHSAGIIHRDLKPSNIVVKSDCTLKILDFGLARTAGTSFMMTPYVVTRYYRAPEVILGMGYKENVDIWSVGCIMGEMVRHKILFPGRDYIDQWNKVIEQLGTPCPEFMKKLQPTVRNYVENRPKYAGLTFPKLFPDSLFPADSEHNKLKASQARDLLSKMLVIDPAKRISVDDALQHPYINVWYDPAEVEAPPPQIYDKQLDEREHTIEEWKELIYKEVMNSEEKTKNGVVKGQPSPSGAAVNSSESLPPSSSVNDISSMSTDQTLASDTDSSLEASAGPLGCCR
Tyrosine-protein kinase ABL1, sequence (P00519 whole entry): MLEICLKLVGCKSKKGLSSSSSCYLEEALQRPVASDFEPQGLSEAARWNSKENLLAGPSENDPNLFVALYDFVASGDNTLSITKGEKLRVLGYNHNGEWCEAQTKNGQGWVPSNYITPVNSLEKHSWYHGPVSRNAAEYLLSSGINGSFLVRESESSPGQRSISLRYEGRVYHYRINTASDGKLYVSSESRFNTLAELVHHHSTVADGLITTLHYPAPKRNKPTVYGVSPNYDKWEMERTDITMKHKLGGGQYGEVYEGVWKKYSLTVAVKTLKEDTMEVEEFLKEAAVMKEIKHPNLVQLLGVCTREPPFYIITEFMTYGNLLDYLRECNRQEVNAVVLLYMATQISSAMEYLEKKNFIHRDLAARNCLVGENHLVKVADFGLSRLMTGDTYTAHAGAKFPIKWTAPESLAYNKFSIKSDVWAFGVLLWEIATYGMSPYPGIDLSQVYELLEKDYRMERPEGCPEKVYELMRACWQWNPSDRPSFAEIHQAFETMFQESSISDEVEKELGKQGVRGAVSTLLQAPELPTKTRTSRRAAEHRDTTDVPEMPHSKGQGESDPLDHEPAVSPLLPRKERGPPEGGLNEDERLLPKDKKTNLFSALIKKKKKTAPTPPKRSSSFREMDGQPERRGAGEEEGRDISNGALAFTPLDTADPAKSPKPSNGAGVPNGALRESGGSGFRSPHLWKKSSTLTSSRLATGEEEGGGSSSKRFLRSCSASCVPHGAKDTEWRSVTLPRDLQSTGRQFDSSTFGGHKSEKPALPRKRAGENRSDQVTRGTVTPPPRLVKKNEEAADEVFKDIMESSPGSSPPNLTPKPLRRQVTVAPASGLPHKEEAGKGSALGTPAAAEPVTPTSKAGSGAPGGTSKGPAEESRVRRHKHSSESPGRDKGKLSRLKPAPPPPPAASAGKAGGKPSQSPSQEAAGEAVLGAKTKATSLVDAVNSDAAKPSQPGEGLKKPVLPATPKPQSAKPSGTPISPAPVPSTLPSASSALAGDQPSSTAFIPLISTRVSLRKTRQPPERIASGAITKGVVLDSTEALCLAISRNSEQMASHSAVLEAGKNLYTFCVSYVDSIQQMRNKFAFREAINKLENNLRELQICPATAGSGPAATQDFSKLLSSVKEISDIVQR
Serine/threonine-protein kinase 25 (Homo sapiens), sequence (O00506 whole entry, looked up): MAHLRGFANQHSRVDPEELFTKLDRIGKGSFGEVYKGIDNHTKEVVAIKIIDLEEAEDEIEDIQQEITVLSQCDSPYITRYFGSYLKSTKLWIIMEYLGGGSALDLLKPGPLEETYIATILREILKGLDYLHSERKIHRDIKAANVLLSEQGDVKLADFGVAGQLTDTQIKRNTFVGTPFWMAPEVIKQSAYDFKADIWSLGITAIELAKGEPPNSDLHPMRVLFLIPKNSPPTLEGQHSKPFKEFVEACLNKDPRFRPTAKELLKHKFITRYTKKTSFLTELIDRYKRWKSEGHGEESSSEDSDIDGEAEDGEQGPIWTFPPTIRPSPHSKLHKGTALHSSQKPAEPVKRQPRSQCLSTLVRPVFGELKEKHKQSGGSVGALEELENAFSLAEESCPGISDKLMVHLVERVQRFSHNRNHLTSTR
Serine/threonine-protein kinase Nek7 (Homo sapiens), sequence (Q8TDX7 whole entry, looked up): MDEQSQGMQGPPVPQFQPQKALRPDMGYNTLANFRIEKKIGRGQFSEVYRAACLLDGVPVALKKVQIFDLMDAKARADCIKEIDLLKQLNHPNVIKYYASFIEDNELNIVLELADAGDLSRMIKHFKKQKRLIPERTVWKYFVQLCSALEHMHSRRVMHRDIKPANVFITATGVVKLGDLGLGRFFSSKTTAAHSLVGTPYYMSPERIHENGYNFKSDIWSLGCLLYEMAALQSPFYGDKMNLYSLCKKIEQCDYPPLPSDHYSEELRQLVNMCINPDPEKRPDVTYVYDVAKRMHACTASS
Calcium/calmodulin-dependent protein kinase type II subunit gamma (Homo sapiens), sequence (Q13555 whole entry): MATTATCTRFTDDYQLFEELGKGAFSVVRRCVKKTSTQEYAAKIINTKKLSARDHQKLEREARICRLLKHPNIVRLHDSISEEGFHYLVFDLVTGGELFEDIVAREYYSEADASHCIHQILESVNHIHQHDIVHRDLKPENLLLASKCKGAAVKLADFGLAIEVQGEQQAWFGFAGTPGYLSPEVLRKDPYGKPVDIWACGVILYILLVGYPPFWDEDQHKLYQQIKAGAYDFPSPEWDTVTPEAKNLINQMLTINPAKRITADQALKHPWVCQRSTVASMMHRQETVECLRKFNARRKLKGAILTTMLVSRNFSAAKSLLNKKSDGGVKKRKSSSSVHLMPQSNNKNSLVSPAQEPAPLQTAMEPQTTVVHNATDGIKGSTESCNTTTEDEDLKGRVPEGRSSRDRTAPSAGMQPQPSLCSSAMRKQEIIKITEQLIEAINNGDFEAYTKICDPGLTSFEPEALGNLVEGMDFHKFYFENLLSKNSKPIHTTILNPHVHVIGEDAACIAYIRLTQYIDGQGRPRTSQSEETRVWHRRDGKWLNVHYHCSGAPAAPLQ
Proto-oncogene tyrosine-protein kinase Src, sequence (P12931 2-536 limits assumed): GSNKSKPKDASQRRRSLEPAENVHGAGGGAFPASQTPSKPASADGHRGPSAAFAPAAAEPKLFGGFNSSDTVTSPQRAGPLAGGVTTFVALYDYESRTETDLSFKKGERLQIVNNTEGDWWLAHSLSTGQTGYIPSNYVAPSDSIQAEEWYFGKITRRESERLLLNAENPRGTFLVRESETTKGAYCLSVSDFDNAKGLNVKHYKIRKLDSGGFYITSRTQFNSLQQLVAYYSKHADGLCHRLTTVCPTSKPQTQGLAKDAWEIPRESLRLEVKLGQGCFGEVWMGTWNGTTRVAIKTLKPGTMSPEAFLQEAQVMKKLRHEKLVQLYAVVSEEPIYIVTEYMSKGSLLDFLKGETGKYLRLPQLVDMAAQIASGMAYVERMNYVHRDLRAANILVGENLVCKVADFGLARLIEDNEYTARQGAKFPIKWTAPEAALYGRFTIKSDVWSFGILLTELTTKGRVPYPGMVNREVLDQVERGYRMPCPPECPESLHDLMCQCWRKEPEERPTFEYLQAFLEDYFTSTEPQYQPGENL

A word on the inhibition: it is the drop in the measured response relative to a control, in per cent. What is called IC50 is the point on the concentration scale where inhibition reaches its midpoint. A low value points to higher potency. In the case of `CCN1CCN(Cc2ccc(NC(=O)c3ccc(C)c(/C=C/c4cnc5[nH]ccc5c4OC)c3)cc2C(F)(F)F)CC1`, the inhibition in assay [1] was 72.6%; in [4], 12.2%; in [5], 9.8%; in assay [6] it was 7%; in [7], 48.2%; in [8], -9.6%. The inhibition in assay [9] was determined as 14.5%; in [10] it was 23.9%; in assay [11] it was 6.8%; in assay [12], 2%; in assay [13], 17.1%. Further, the IC50 was > 10000 nM in assay [2] and 51.5 nM in assay [3].
As to `CCN1CCN(Cc2ccc(NC(=O)c3ccc(C)c(Oc4ccnc5[nH]ccc45)c3)cc2C(F)(F)F)CC1`, the inhibition in [1] was 36.5%; in assay [4], 32.1%; in assay [5] it was 12.5%; in assay [6], 13.9%; in [7], 65%; in [8] it was -5.5%. For the same compound, the inhibition was 16.6% in assay [9]; 50.3% in [10]; 14.2% in assay [11]; 4.2% in assay [12]; 13.4% in [13]. Further, the IC50 was > 10000 nM in assay [2] and 75.2 nM in [3].

The values are drawn from ChEMBL document CHEMBL5696442, “Discovery of type II inhibitors of TGFβ-activated kinase 1 (TAK1) and mitogen-activated protein kinase kinase kinase kinase 2 (MAP4K2)” (J Med Chem, 2015).
